Measured values taken from patent US12447153B2, “HER2 mutation inhibitors” (Array BioPharma Inc., priority 2021, dated 2025).

Columns and labels:
MDR1 (P-gp) = MDR1 (P-gp) (Homo sapiens (Human), UniProt P08183); assay: in vitro; conditions: pig, LLC-PK1
EGFR = EGFR (Homo sapiens (Human), UniProt P00533); assay: ErbB Enzyme Assay (HTRF KinEASE-TK), Assay 3; assay type: biochemical; conditions: EGFR enzyme assay
ErbB2 WT = ErbB2 WT (Homo sapiens (Human), UniProt P04626); assay: ErbB Enzyme Assay (HTRF KinEASE-TK), Assay 2; assay type: biochemical; conditions: ErbB2 WT enzyme assay
BCRP = BCRP (Homo sapiens (Human), UniProt Q9UNQ0); assay: BCRP MDCKII efflux assay (Assay 7); assay type: in vitro ADME; conditions: dog; efflux ratio Papp(B-A)/Papp(A-B), BCRP MDCKII cells; read-out: Assay 7 Pe Ratio
BCRP, sequence (Q9UNQ0 whole entry): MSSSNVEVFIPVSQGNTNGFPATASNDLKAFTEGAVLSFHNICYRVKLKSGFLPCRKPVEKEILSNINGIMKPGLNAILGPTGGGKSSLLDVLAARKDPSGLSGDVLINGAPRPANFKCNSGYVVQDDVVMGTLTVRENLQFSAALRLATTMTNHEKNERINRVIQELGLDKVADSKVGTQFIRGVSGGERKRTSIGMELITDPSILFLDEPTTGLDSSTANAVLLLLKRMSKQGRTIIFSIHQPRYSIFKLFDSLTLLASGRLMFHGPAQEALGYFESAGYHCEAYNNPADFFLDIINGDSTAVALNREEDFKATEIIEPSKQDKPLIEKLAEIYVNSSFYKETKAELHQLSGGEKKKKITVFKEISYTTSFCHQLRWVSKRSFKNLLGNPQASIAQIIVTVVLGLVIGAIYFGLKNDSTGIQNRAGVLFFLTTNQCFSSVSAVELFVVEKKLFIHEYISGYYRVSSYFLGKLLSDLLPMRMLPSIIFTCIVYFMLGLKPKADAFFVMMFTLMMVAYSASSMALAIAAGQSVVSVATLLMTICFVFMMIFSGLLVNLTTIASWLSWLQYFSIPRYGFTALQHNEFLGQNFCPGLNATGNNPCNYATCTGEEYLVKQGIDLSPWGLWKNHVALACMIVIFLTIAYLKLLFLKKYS
Method: Assay conditions included with and without the BCRP-specific inhibitor, KO143, at a concentration of 0.3 μM to ascertain the contribution of BCRP to the efflux value of the test compound.
Final organic concentration in the assay was 1%.

EGFR wild type (EGFR WT) = EGFR wild type (EGFR WT) (Homo sapiens (Human), UniProt P00533); assay: Cellular Phosphorylation Assay, Assay 5 (EGF-stimulated EGFR phosphorylation, NIH 3T3 cells); assay type: cell-based; conditions: cellular EGFR WT phosphorylation, EGF-stimulated
[1] = target: ErbB2 with Exon 20 YVMA insertion (HER2-YVMA) (Homo sapiens (Human), UniProt P04626, INS775YVMA); assay: Cellular Phosphorylation Assay, Assay 4 (constitutive ErbB2 phosphorylation, NIH 3T3 cells); assay type: cell-based; conditions: cellular ErbB2 YVMA phosphorylation
ErbB2 with Exon 20 YVMA insertion (HER2-YVMA), sequence (P04626 other isoform, or with tags, fused parts or gaps ins YVMA behind 775): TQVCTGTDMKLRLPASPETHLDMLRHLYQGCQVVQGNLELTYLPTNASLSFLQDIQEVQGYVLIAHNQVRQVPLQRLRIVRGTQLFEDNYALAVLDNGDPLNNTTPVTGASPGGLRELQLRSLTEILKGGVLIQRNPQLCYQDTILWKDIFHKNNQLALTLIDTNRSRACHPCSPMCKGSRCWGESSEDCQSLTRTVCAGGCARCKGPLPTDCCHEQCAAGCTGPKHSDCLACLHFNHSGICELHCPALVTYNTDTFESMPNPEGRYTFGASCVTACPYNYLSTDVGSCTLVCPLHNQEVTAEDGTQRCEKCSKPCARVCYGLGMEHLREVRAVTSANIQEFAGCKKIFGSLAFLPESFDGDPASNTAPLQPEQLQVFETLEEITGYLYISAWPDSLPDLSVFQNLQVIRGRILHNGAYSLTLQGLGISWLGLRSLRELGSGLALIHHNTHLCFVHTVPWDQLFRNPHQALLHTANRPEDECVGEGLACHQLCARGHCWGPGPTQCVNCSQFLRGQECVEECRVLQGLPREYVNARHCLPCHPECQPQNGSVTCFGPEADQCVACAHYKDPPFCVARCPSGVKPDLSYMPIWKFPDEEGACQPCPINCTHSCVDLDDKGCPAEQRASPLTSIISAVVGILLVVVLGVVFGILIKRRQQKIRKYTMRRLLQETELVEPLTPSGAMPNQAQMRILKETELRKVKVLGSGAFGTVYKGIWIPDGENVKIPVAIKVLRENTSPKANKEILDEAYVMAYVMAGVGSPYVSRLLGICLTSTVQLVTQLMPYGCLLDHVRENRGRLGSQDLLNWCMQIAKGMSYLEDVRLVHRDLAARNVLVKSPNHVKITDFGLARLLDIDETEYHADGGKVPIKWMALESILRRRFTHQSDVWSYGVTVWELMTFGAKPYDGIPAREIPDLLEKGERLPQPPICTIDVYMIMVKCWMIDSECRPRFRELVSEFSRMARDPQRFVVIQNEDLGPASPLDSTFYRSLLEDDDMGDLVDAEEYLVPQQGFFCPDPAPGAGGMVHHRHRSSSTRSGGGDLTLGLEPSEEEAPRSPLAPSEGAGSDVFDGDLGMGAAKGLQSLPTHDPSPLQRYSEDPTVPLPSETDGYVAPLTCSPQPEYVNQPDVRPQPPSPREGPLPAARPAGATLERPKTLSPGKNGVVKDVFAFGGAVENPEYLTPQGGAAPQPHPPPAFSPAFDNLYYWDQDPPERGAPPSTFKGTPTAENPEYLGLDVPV

MDR1 (P-gp), sequence (P08183 whole entry): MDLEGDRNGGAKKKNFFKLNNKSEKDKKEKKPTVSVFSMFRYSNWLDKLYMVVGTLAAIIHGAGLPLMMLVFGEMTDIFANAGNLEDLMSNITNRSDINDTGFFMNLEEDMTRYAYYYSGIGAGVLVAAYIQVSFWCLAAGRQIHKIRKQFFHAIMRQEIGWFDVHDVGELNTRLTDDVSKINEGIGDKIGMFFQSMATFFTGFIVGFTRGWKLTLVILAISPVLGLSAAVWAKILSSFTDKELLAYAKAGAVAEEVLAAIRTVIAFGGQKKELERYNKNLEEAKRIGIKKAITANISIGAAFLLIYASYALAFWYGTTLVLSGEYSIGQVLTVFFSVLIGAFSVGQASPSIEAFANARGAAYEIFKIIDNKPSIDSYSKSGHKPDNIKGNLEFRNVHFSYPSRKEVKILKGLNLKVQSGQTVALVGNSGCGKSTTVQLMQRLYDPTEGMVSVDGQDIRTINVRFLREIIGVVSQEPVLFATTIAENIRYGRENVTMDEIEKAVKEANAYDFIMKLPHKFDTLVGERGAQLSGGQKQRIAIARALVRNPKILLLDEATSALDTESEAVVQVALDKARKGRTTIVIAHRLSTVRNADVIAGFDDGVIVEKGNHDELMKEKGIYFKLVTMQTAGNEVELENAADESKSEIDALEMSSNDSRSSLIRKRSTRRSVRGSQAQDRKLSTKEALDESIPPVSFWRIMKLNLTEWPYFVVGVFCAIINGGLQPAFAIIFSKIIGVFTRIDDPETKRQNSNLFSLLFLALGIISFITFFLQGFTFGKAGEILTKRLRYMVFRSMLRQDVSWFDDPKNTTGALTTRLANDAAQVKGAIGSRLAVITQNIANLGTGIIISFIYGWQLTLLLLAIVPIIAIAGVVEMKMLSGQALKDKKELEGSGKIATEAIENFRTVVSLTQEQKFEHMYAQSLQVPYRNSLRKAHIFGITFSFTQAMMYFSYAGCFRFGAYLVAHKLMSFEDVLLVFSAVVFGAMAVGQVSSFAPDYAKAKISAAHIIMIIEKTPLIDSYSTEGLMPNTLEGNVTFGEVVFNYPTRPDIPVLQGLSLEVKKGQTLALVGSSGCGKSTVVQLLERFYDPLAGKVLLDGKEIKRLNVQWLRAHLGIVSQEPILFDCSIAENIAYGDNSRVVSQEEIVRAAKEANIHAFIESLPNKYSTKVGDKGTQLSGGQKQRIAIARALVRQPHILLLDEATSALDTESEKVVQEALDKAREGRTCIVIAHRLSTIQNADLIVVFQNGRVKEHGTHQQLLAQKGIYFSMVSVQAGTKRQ
EGFR, sequence (P00533 25-1210): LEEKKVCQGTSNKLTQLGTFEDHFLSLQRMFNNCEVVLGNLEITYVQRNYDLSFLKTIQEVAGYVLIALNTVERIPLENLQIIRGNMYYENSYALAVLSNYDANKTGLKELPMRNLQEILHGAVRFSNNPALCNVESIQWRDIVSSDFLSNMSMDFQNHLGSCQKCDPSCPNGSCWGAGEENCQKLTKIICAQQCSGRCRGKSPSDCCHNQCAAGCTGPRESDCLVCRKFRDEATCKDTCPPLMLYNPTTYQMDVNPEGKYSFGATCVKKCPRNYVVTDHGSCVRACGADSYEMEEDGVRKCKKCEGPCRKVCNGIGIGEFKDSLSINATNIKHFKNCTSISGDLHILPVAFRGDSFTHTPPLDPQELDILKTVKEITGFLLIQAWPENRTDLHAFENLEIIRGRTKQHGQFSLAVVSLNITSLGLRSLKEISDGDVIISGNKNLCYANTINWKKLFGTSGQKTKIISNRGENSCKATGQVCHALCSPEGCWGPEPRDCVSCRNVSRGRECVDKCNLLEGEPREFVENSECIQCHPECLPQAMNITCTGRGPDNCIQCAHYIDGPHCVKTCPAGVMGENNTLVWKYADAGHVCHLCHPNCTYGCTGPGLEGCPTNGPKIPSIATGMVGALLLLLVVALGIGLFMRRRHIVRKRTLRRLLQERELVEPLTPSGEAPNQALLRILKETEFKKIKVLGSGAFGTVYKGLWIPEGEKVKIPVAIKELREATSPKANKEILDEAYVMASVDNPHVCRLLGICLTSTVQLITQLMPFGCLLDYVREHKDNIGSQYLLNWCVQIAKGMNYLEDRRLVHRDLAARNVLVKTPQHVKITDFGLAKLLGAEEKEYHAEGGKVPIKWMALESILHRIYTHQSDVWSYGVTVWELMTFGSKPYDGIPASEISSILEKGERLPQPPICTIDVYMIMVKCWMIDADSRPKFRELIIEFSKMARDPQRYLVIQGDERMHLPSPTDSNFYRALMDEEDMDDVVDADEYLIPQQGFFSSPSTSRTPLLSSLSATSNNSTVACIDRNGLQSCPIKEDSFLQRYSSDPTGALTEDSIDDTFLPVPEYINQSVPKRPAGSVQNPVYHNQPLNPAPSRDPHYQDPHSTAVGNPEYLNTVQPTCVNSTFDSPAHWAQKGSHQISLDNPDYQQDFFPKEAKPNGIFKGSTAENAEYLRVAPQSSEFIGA

efflux ratio at 2 h, 1 µM (MDR1 (P-gp)) | IC50 (EGFR) | IC50 (ErbB2 WT) | efflux ratio at 2 h, 1 µM (BCRP) | IC50 (EGFR wild type (EGFR WT)) | IC50 [1] | SMILES
1.3 | ≥ 10000 nM | 13.4 nM | 3.6 | 716 nM | 27.9 nM | C=CC(=O)N1CCCN(c2ccc3ncnc(Nc4ccc(Oc5ccn6ncnc6c5)c(Cl)c4F)c3n2)CC1(C)C [Example 261]
1.7 | ≥ 10000 nM | 18.9 nM | 4.6 | ≥ 5000 nM | 32.4 nM | C=CC(=O)N1CCN(c2ccc3ncnc(Nc4ccc(Oc5ccc6c(c5)ncn6C)c(Cl)c4F)c3n2)CC1(C)C [Example 262]
1.2 | 7760 nM | 17.2 nM | 3.4 | 4040 nM | 33.9 nM | C=CC(=O)N1[C@H](C)CN(c2ccc3ncnc(Nc4cc(Cl)c(Oc5ccn6ncnc6c5)cc4F)c3n2)C[C@@H]1C [Example 265]
1.6 | 942 nM | 21 nM | 1.1 | 494 nM | 20.1 nM | C=CC(=O)N1CCC(c2ccc3ncnc(Nc4ccc(Oc5ccn6ncnc6c5)c(C)c4F)c3n2)CC12CC2 (stereo not drawn) [Example 270]
1 | ≥ 10000 nM | 14.8 nM | 2 | ≥ 5000 nM | 16.5 nM | C=CC(=O)N1CCN(c2ccc3ncnc(Nc4cc(Cl)c(Oc5ccn6ncnc6c5)cc4F)c3n2)C[C@@H]1C1CC1 [Example 286]
1 | 1100 nM | 12.4 nM | 1.7 | 1960 nM | 9.8 nM | C=CC(=O)N1CCN(c2ccc3ncnc(Nc4ccc(Oc5ccn6ncnc6c5)c(Cl)c4F)c3n2)C[C@@H]1C1CC1 [Example 287]
1.5 | 8710 nM | 53.6 nM | 4.8 | ≥ 5000 nM | 38.5 nM | C=CC(=O)N1CCN(c2ccc3ncnc(Nc4cc(C)c(Oc5ccn6ncnc6c5)cc4F)c3n2)C[C@@H]1CC [Example 290]
1.3 | 5070 nM | 20 nM | 1.1 | 2580 nM | 18.3 nM | C=CC(=O)N1CCN(c2ccc3ncnc(Nc4ccc(Oc5ccn6ncnc6c5)c(C)c4F)c3n2)C[C@H]1C(C)(C)C [Example 303]
4.8 | 192 nM | 8.1 nM | 3.6 | 264 nM | 5.7 nM | C=CC(=O)N1C[C@@H]2CC[C@H]1CN2c1ccc2ncnc(Nc3cc(C)c(Oc4ccn5ncnc5c4)cc3F)c2n1 [Example 319]
1.5 | 2860 nM | 18.7 nM | 2.1 | 961 nM | 19.7 nM | C=CC(=O)N1CCN(c2ccc3ncnc(Nc4cc(Cl)c(Oc5ccn6ncnc6c5)cc4F)c3n2)CC1(C)C [Example 326]
1.2 | 196 nM | 10.9 nM | 3.2 | 341 nM | 5.9 nM | C=CC(=O)N1CC[C@@H]2C[C@H]1CN2c1ccc2ncnc(Nc3cc(C)c(Oc4ccn5ncnc5c4)cc3F)c2n1 [Example 332]
1.4 | 362 nM | 13 nM | 3.6 | 417 nM | 8.2 nM | C=CC(=O)N1CCN(c2ccc3ncnc(Nc4cc(C)c(Oc5ccn6ncnc6c5)cc4F)c3n2)CC12CC2 [Example 337]
1.5 | ≥ 10000 nM | 158 nM | 7.2 | ≥ 5000 nM | 28.5 nM | C=CC(=O)N1CCN(c2ccc3ncnc(Nc4cc(C)c(Oc5cnc6c(c5)ncn6C)cc4F)c3n2)C[C@@H]1C1CC1 [Example 355]
0.9 | ≥ 10000 nM | 234 nM | 4.8 | ≥ 5000 nM | 27.1 nM | C=CC(=O)N1CCN(c2ccc3ncnc(Nc4cc(C)c(Oc5cnc6c(c5)ncn6C)cc4F)c3n2)C[C@H]1C1CC1 [Example 356]
1.6 | 5050 nM | 122 nM | 6.2 | ≥ 5000 nM | 17.1 nM | C=CC(=O)N1CCN(c2ccc3ncnc(Nc4cc(C)c(Oc5cnc6c(c5)ncn6C)cc4F)c3n2)CC1(C)C [Example 357]
2.9 | 908 nM | 33.6 nM | 2.3 | 760 nM | 8 nM | C=CC(=O)N1CCC12CN(c1ccc3ncnc(Nc4cc(C)c(Oc5ccn6ncnc6c5)cc4F)c3n1)C2 [Example 361]
1.4 | 9630 nM | 76.1 nM | 2.7 | ≥ 5000 nM | 34.7 nM | C=CC(=O)N1CCCC(c2ccc3ncnc(Nc4cc(C)c(Oc5ccn6ncnc6c5)cc4F)c3n2)CC1 (stereo not drawn) [Example 368]
3.2 | 1800 nM | 40.7 nM | 1.8 | 1700 nM | 28.1 nM | C=CC(=O)N1C[C@@H]2C[C@H](c3ccc4ncnc(Nc5cc(C)c(Oc6ccc7c(c6)ncn7C)cc5F)c4n3)C[C@H]1C2 [Example 388]
1.5 | 2720 nM | 9.2 nM | 5.5 | ≥ 5000 nM | 30 nM | C=CC(=O)N1CCCC(c2ccc3ncnc(Nc4ccc(Oc5ccn6ncnc6c5)c(C)c4)c3n2)CC1 (stereo not drawn) [Example 401]
2 | 1290 nM | 61.3 nM | 4 | ≥ 5000 nM | 13.4 nM | C=CC(=O)N1CCCC(c2ccc3ncnc(Nc4ccc(Oc5cnc6c(c5)ncn6C)c(C)c4)c3n2)CC1 (stereo not drawn) [Example 403]
0.9 | 336 nM | 8.7 nM | 4.3 | 737 nM | 9.3 nM | C=CC(=O)N1C[C@H]2C[C@@H]1[C@H](c1ccc3ncnc(Nc4ccc(Oc5ccn6ncnc6c5)c(Cl)c4F)c3n1)C2 [Example 406]
1.6 | ≥ 10000 nM | 206 nM | 3 | ≥ 5000 nM | 29.2 nM | C=CC(=O)N1CCCC(c2ccc3ncnc(Nc4cc(C)c(Oc5cnc6c(c5)ncn6C)cc4F)c3n2)CC1 (stereo not drawn) [Example 412]
1 | 2220 nM | 78.6 nM | 2 | ≥ 5000 nM | 24.6 nM | C=CC(=O)N1CCCC(c2ccc3ncnc(Nc4ccc(Oc5cnc6c(c5)ncn6C)c(C)c4F)c3n2)CC1 (stereo not drawn) [Example 413]
0.9 | 2710 nM | 79.5 nM | 2 | ≥ 5000 nM | 36.6 nM | C=CC(=O)N1C[C@H]2C[C@@H]1[C@H](c1ccc3ncnc(Nc4cc(C)c(Oc5cnc6c(c5)ncn6C)cc4F)c3n1)C2 [Example 416]

SMILES | efflux ratio at 2 h, 1 µM (MDR1 (P-gp)) | IC50 (EGFR) | IC50 (ErbB2 WT) | efflux ratio at 2 h, 1 µM (BCRP) | IC50 (EGFR wild type (EGFR WT)) | IC50 [1]
C=CC(=O)N1CC2CC(C1)N2c1ccc2ncnc(Nc3cc(C)c(Oc4ccc5c(c4)ncn5C)cc3F)c2n1 [Example 334] | 3.7 | 430 nM | 55.6 nM | 1.9 | 1080 nM | 21.8 nM
C=CC(=O)N1[C@@H]2CC[C@H]1CC(c1ccc3ncnc(Nc4ccc(Oc5ccn6ncnc6c5)c(C)c4F)c3n1)C2 (stereo partly drawn) [Example 369] | 1.1 | 2480 nM | 67.1 nM | 4.3 | 1360 nM | 22.4 nM
C=CC(=O)N1[C@@H]2CC[C@H]1[C@H](c1ccc3ncnc(Nc4cc(C)c(Oc5ccc6c(c5)ncn6C)cc4F)c3n1)C2 [Example 393] | 1.8 | 715 nM | 13.4 nM | 2.2 | ≥ 5000 nM | 15.4 nM
C=CC(=O)N1[C@@H]2CC[C@H]1[C@H](c1ccc3ncnc(Nc4ccc(Oc5ccc6c(c5)ncn6C)c(C)c4F)c3n1)C2 [Example 394] | 2.6 | 252 nM | 11.4 nM | 1.8 | ≥ 5000 nM | 10.7 nM
C=CC(=O)N1[C@@H]2CC[C@H]1[C@H](c1ccc3ncnc(Nc4ccc(Oc5ccn6ncnc6c5)c(Cl)c4F)c3n1)C2 [Example 404] | 1.2 | 104 nM | 7.2 nM | 5.2 | ≥ 5000 nM | 11.5 nM
C=CC(=O)N1[C@@H]2CC[C@H]1[C@H](c1ccc3ncnc(Nc4ccc(Oc5cnc6c(c5)ncn6C)c(C)c4)c3n1)C2 [Example 408] | 1.1 | 498 nM | 32 nM | 2.2 | ≥ 5000 nM | 23.7 nM
C=CC(=O)N1[C@@H]2CCC[C@H]1[C@@H](c1ccc3ncnc(Nc4ccc(Oc5ccn6ncnc6c5)c(C)c4F)c3n1)C2 [Example 415] | 1 | 247 nM | 9.8 nM | 1.8 | ≥ 5000 nM | 32 nM
